Results as given in BindingDB's records for doi:10.1016/j.bmcl.2018.09.032 (Shionogi, 2018).

Experiment: Transrepression of RORgammat in anti-CD3/CD28 stimulated human PBMC derived CD4-positive T cells assessed as suppression of T cell differentiation to Th17 cells by measuring reduction in IL-17A level after 7 days by flow cytometry analysis

IC50 | Structure (SMILES)
36 nM | CCS(=O)(=O)c1ccc(CC(=O)Nc2ccc(C(C)(C)C(=O)Nc3ccc(F)cc3F)cc2)cc1
13 nM | CCS(=O)(=O)c1ccc(CC(=O)Nc2ccc(C(C)(C)C(=O)Nc3ccc(F)cc3F)c(F)c2)cc1
